Results published in patent publication US20260250318A1, “COMPOSITIONS AND METHODS FOR CROSSING THE BLOOD BRAIN BARRIER” (VOYAGER THERAPEUTICS, INC., priority 2022, published 2026).

Tests used:
[1] = test system: brains, heart, liver, muscle, and DRG of the NHPs; experiment: Maturation of TTM-001 and TTM-002 capsids, NGS enrichment in NHP tissues; assay type: in vivo; details: relative to AAV9 control
Procedure, shortened: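 Variants carry mutations within and flanking the loop IV peptide insert: positions 450–466 were triplet-randomized, while positions 449–466 received low-frequency point mutations. The combined pool went into two NHPs, and each peptide was scored by NGS enrichment ratio against AAV9.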

brain = experiment: Matured TTM-001 and TTM-002 variants, NGS enrichment in mouse brain; assay type: in vivo, mice; details: relative to AAV9 control
[2] = NGS fold-enrichment of matured AAV capsid variants, NHP brain, RNA
[3] = NGS fold-enrichment, DRG of NHPs
[4] = NGS fold-enrichment, RNA, brain of NHPs
[5] = NGS fold-enrichment, heart of NHPs
[6] = NGS fold-enrichment, liver DNA of NHPs
[7] = NGS fold-enrichment, liver RNA of NHPs
[8] = NGS fold-enrichment, muscle of NHPs
[9] = NGS fold-enrichment, brain of mice
[10] = NGS fold-enrichment of RNA, NHP brain
[11] = NGS fold-enrichment, NHP liver DNA
[12] = NGS fold-enrichment, NHP liver RNA
[13] = NGS fold-enrichment, NHP muscle
[14] = NGS fold-enrichment, mouse brain

Sequence | Fold Enrichment relative to AAV9, Brain (NHP) [1, 10] [fold] | Fold Enrichment relative to AAV9, DRG (NHP) ([1]; NGS fold-enrichment, NHP DRG) [fold] | Fold Enrichment relative to AAV9, Heart (NHP) ([1]; NGS fold-enrichment, NHP heart) [fold] | Fold Enrichment relative to AAV9, Liver DNA (NHP) [1, 11] [fold] | Fold Enrichment relative to AAV9, Liver RNA (NHP) [1, 12] [fold] | Fold Enrichment relative to AAV9, Muscle (NHP) [1, 13] [fold] | Fold Enrichment relative to AAV9, Brain (Mouse) (brain; [14]) [fold] | further results
KTVNGGGSPHSKAQNHQT | – | – | – | – | – | – | – | Fold Enrichment relative to AAV9, Brain (NHP) [1, 2]: 54.246 fold; Fold Enrichment relative to AAV9, DRG (NHP) ([1]; NHP DRG): 0.375 fold; Fold Enrichment relative to AAV9, Heart (NHP) ([1]; NHP heart): 0.024 fold; Fold Enrichment relative to AAV9, Liver DNA (NHP) ([1]; NHP liver, DNA): 0.146 fold; Fold Enrichment relative to AAV9, Liver RNA (NHP) ([1]; NHP liver, RNA): 0.000 fold; Fold Enrichment relative to AAV9, Muscle (NHP) ([1]; NHP muscle): 0.000 fold; Fold Enrichment relative to AAV9, Brain (Mouse) (brain; mouse brain): 67.188 fold
KTVNGGGSPHSKAQNLQT | – | – | – | – | – | – | – | Fold Enrichment relative to AAV9, Brain (NHP) [1, 2]: 52.788 fold; Fold Enrichment relative to AAV9, DRG (NHP) ([1]; NHP DRG): 0.000 fold; Fold Enrichment relative to AAV9, Heart (NHP) ([1]; NHP heart): 0.031 fold; Fold Enrichment relative to AAV9, Liver DNA (NHP) ([1]; NHP liver, DNA): 0.165 fold; Fold Enrichment relative to AAV9, Liver RNA (NHP) ([1]; NHP liver, RNA): 0.000 fold; Fold Enrichment relative to AAV9, Muscle (NHP) ([1]; NHP muscle): 0.000 fold; Fold Enrichment relative to AAV9, Brain (Mouse) (brain; mouse brain): 83.215 fold
KTVNGGGSPHSKAQNQQS | – | – | – | – | – | – | – | Fold Enrichment relative to AAV9, DRG (NHP) [1, 3]: 0.062 fold; Fold Enrichment relative to AAV9, Brain (NHP) [1, 4]: 59.871 fold; Fold Enrichment relative to AAV9, Heart (NHP) [1, 5]: 0.020 fold; Fold Enrichment relative to AAV9, Liver DNA (NHP) [1, 6]: 0.185 fold; Fold Enrichment relative to AAV9, Liver RNA (NHP) [1, 7]: 0.080 fold; Fold Enrichment relative to AAV9, Muscle (NHP) [1, 8]: 0.000 fold; Fold Enrichment relative to AAV9, Brain (Mouse) (brain; [9]): 61.847 fold
KTVNGGGSPHSKAQSQQT | – | – | – | – | – | – | – | Fold Enrichment relative to AAV9, DRG (NHP) [1, 3]: 0.000 fold; Fold Enrichment relative to AAV9, Brain (NHP) [1, 4]: 67.634 fold; Fold Enrichment relative to AAV9, Heart (NHP) [1, 5]: 0.055 fold; Fold Enrichment relative to AAV9, Liver DNA (NHP) [1, 6]: 0.210 fold; Fold Enrichment relative to AAV9, Liver RNA (NHP) [1, 7]: 0.000 fold; Fold Enrichment relative to AAV9, Muscle (NHP) [1, 8]: 0.000 fold; Fold Enrichment relative to AAV9, Brain (Mouse) (brain; [9]): 160.711 fold
KTVNGGGSPHSKSQNQQT | – | – | – | – | – | – | – | Fold Enrichment relative to AAV9, Brain (NHP) [1, 2]: 56.114 fold; Fold Enrichment relative to AAV9, DRG (NHP) ([1]; NHP DRG): 0.116 fold; Fold Enrichment relative to AAV9, Heart (NHP) ([1]; NHP heart): 0.000 fold; Fold Enrichment relative to AAV9, Liver DNA (NHP) ([1]; NHP liver, DNA): 0.040 fold; Fold Enrichment relative to AAV9, Liver RNA (NHP) ([1]; NHP liver, RNA): 0.000 fold; Fold Enrichment relative to AAV9, Muscle (NHP) ([1]; NHP muscle): 0.000 fold; Fold Enrichment relative to AAV9, Brain (Mouse) (brain; mouse brain): 170.548 fold
KTVNGHDSPHKIGHNQQT | 120.985 | 0.000 | 0.029 | 0.009 | 0.000 | 0.000 | 10.167 | –
KTVNGHDSPHKSGHTQQT | 82.246 | 0.000 | 0.378 | 0.123 | 0.000 | 1.142 | 6.160 | –
KTVNGHDSPHKSGQNHLT | 81.516 | 0.000 | 0.100 | 0.028 | 0.000 | 0.017 | 16.096 | –
KTVNGHDSPHKSGQNLHT | 88.080 | 0.000 | 0.080 | 0.039 | 0.000 | 0.000 | 11.363 | –
KTVNGHDSPHKSGQNLLT | 83.969 | 0.114 | 0.040 | 0.035 | 0.000 | 0.023 | 18.894 | –
KTVNGHDSPHKSGQTRQT | 133.276 | 0.251 | 0.080 | 0.129 | 0.034 | 0.093 | 7.174 | –
KTVNGHDSPHKSGRNQET | 102.695 | 0.000 | 0.286 | 0.027 | 0.000 | 0.000 | 11.958 | –
KTVNGHDSPHKSLQNQQT | 112.925 | 0.000 | 0.301 | 0.322 | 0.000 | 0.059 | 16.726 | –
KTVNGHDSPHKSRQSQQT | 76.458 | 0.000 | 0.063 | 0.021 | 0.000 | 0.000 | 8.136 | –
KTVNGNGSPHSKAQNHQT | – | – | – | – | – | – | – | Fold Enrichment relative to AAV9, DRG (NHP) [1, 3]: 0.000 fold; Fold Enrichment relative to AAV9, Brain (NHP) [1, 4]: 68.889 fold; Fold Enrichment relative to AAV9, Heart (NHP) [1, 5]: 0.000 fold; Fold Enrichment relative to AAV9, Liver DNA (NHP) [1, 6]: 0.030 fold; Fold Enrichment relative to AAV9, Liver RNA (NHP) [1, 7]: 0.000 fold; Fold Enrichment relative to AAV9, Muscle (NHP) [1, 8]: 0.000 fold; Fold Enrichment relative to AAV9, Brain (Mouse) (brain; [9]): 52.482 fold
KTVNGNGSPHSKAQNKQT | 81.481 | 0.000 | 0.000 | 0.122 | 0.000 | 0.000 | 69.455 | Fold Enrichment relative to AAV9, DRG (NHP) [1, 3]: 0.000 fold; Fold Enrichment relative to AAV9, Brain (NHP) [1, 4]: 81.481 fold; Fold Enrichment relative to AAV9, Heart (NHP) [1, 5]: 0.000 fold; Fold Enrichment relative to AAV9, Liver DNA (NHP) [1, 6]: 0.122 fold; Fold Enrichment relative to AAV9, Liver RNA (NHP) [1, 7]: 0.000 fold; Fold Enrichment relative to AAV9, Muscle (NHP) [1, 8]: 0.000 fold; Fold Enrichment relative to AAV9, Brain (Mouse) (brain; [9]): 69.455 fold
KTVNGNGSPHSKAQNQHT | 78.849 | 0.000 | 0.000 | 0.045 | 0.000 | 0.000 | 54.086 | Fold Enrichment relative to AAV9, DRG (NHP) [1, 3]: 0.000 fold; Fold Enrichment relative to AAV9, Brain (NHP) [1, 4]: 78.849 fold; Fold Enrichment relative to AAV9, Heart (NHP) [1, 5]: 0.000 fold; Fold Enrichment relative to AAV9, Liver DNA (NHP) [1, 6]: 0.045 fold; Fold Enrichment relative to AAV9, Liver RNA (NHP) [1, 7]: 0.000 fold; Fold Enrichment relative to AAV9, Muscle (NHP) [1, 8]: 0.000 fold; Fold Enrichment relative to AAV9, Brain (Mouse) (brain; [9]): 54.086 fold
KTVNGNGSPHSKSQNQQT | – | – | – | – | – | – | – | Fold Enrichment relative to AAV9, Brain (NHP) [1, 2]: 54.586 fold; Fold Enrichment relative to AAV9, DRG (NHP) ([1]; NHP DRG): 0.000 fold; Fold Enrichment relative to AAV9, Heart (NHP) ([1]; NHP heart): 0.000 fold; Fold Enrichment relative to AAV9, Liver DNA (NHP) ([1]; NHP liver, DNA): 0.168 fold; Fold Enrichment relative to AAV9, Liver RNA (NHP) ([1]; NHP liver, RNA): 0.256 fold; Fold Enrichment relative to AAV9, Muscle (NHP) ([1]; NHP muscle): 0.000 fold; Fold Enrichment relative to AAV9, Brain (Mouse) (brain; mouse brain): 95.384 fold
KTVNGSGSPHSKAPNQHT | 117.207 | 0.000 | 0.109 | 0.074 | 0.000 | 0.000 | 51.008 | Fold Enrichment relative to AAV9, DRG (NHP) [1, 3]: 0.000 fold; Fold Enrichment relative to AAV9, Brain (NHP) [1, 4]: 117.207 fold; Fold Enrichment relative to AAV9, Heart (NHP) [1, 5]: 0.109 fold; Fold Enrichment relative to AAV9, Liver DNA (NHP) [1, 6]: 0.074 fold; Fold Enrichment relative to AAV9, Liver RNA (NHP) [1, 7]: 0.000 fold; Fold Enrichment relative to AAV9, Muscle (NHP) [1, 8]: 0.000 fold; Fold Enrichment relative to AAV9, Brain (Mouse) (brain; [9]): 51.008 fold
KTVNGSGSPHSKAPNQQT | – | – | – | – | – | – | – | Fold Enrichment relative to AAV9, Brain (NHP) [1, 2]: 53.444 fold; Fold Enrichment relative to AAV9, DRG (NHP) ([1]; NHP DRG): 0.833 fold; Fold Enrichment relative to AAV9, Heart (NHP) ([1]; NHP heart): 2.206 fold; Fold Enrichment relative to AAV9, Liver DNA (NHP) ([1]; NHP liver, DNA): 0.178 fold; Fold Enrichment relative to AAV9, Liver RNA (NHP) ([1]; NHP liver, RNA): 0.156 fold; Fold Enrichment relative to AAV9, Muscle (NHP) ([1]; NHP muscle): 0.006 fold; Fold Enrichment relative to AAV9, Brain (Mouse) (brain; mouse brain): 58.080 fold
KTVNGSGSPHSKAQDKQT | – | – | – | – | – | – | – | Fold Enrichment relative to AAV9, Brain (NHP) [1, 2]: 51.580 fold; Fold Enrichment relative to AAV9, DRG (NHP) ([1]; NHP DRG): 0.428 fold; Fold Enrichment relative to AAV9, Heart (NHP) ([1]; NHP heart): 0.000 fold; Fold Enrichment relative to AAV9, Liver DNA (NHP) ([1]; NHP liver, DNA): 0.063 fold; Fold Enrichment relative to AAV9, Liver RNA (NHP) ([1]; NHP liver, RNA): 0.041 fold; Fold Enrichment relative to AAV9, Muscle (NHP) ([1]; NHP muscle): 0.069 fold; Fold Enrichment relative to AAV9, Brain (Mouse) (brain; mouse brain): 69.225 fold
